Drawing on patent US20150119394A1, “Insulin-Like Growth Factor-1 Receptor Inhibitors” (Merck Sharp & Dohme Corp., priority 2012, published 2015), this text covers IC50 for 13 compounds.

SMILES strings stand for the structures. A value given as a limit tells only on which side of the number the result lay.

T1 sequence (P08069 999-1274 limits assumed): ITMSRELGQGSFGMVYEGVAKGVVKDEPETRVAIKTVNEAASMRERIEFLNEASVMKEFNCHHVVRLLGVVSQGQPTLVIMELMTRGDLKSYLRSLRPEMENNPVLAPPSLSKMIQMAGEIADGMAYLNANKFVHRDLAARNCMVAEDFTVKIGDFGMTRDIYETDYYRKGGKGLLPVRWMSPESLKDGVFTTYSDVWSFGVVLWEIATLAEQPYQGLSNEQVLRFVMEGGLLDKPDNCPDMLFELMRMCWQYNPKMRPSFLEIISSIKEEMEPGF

This test has as its target T1, intracellular kinase domain of human IGF-1R (GST fusion protein) (Homo sapiens, UniProt P08069).
T1 construct: IGFRK and IRK enzyme used for the assay was intracellular kinase domain of human IGF-1R; GST; made in house
Kind of test: In vitro IGF-1R kinase assay (HTRF). Particulars: ATP 20 μM, IGFRK 0.25 nM. Format: biochemical. Here is the method: The in vitro kinase assays using IGF-1R and IR kinase GST fusion proteins were conducted using a homogeneous time-resolved fluorescence (HTRF) format. Kinase reactions were carried out in a 384-well plate format in a final volume of 20 μL. The standard enzyme reaction buffer consisted of 50 mM Tris HCL (pH: 7.4), 1 mM EGTA, 10 mM MgCl2, 2 mM DTT, 0.01% Tween-20, IGF-1R/IR kinase enzyme, poly GT peptide substrate (Perkin Elmer [Ulight Glu-Tyr (4:1)]n) and ATP [concentration equivalent to Kmapp] […] Briefly, 2.5 μL enzyme and 2.5 μL inhibitor was preincubated for 10 minutes at 23° C. followed by the addition of 2.5 μL of poly GT substrate (final concentration of 50 nM). Reaction was initiated with the addition of 2.5 μL of ATP (final concentration of 20 μM for IGF-1R assay and 10 μM for IR assay). After 1 hour incubation at 23° C., the kinase reaction was stopped with the addition of 5 μL EDTA (final concentration of 10 mM in 20 μL). Europium cryptate—labeled antiphosphotyrosine antibody PY20 (5 μL) was added (final concentration of 2 nM) and the mixture was allowed to equilibrate for 1 hour at 23° C. followed by reading the plate in an Envision plate reader.
The intensity of light emission at 665 nm was directly proportional to the level of substrate phosphorylation. The IC50 values for inhibitors were determined by a four-parameter sigmoidal curve fit (Sigma plot or Graph pad).
IGFRK and IRK enzyme used for the assay was intracellular kinase domain of human IGF-1R and human IR cloned and expressed as GST fusion proteins using the baculovirus expression system and purified using glutathione—Sepharose column.
`NC(=O)c1[nH]c2ccc(Cl)cc2c1S(=O)(=O)N1CCO[C@H](COc2cccc(-c3ccccc3)n2)C1` [Compound 80, (S)-5-chloro-3-((2-(((6-phenylpyridin-2-yl)oxy)methyl)morpholino)sulfonyl)-1H-indole-2-carboxamide] came in with an IC50 of 47.1 nM.
`NC(=O)c1[nH]c2ccc(Cl)cc2c1S(=O)(=O)N1CCO[C@H](COc2ccc(F)c(-c3cccnc3)c2)C1` [Compound 26, (S)-5-chloro-3-((2-((4-fluoro-3-(pyridin-3-yl)phenoxy)methyl)morpholino)sulfonyl)-1H-indole-2-carboxamide]: it took 11.2 nM to reach half-maximal inhibition (IC50).
For the compound `NC(=O)c1[nH]c2ccc(Cl)cc2c1S(=O)(=O)N1CCO[C@H](COc2ncnc3ccccc23)C1` [Compound 91, (S)-5-chloro-3-((2-((quinazolin-4-yloxy)methyl)morpholino)sulfonyl)-1H-indole-2-carboxamide], the IC50 is above 100 nM.
The value for `NC(=O)c1[nH]c2ccc(Cl)cc2c1S(=O)(=O)N1CCO[C@H](COc2ccc(-c3cccnc3)cc2)C1` [Compound 31, (S)-5-chloro-3-((2-((4-(pyridin-3-yl)phenoxy)methyl)morpholino)sulfonyl)-1H-indole-2-carboxamide] was 8.7 nM.
`COc1ncccc1-c1ccc(OC[C@@H]2CN(S(=O)(=O)c3c(C(N)=O)[nH]c4ccc(Cl)cc34)CCO2)cc1` [Compound 44, (S)-5-chloro-3-((2-((4-(2-methoxypyridin-3-yl)phenoxy)methyl)morpholino)sulfonyl)-1H-indole-2-carboxamide] gave an IC50 of 46.4 nM.
Then `Cc1ncccc1-c1ccccc1OC[C@@H]1CN(S(=O)(=O)c2c(C(N)=O)[nH]c3ccc(Cl)cc23)CCO1` [Compound 63, (S)-5-chloro-3-((2-((2-(2-methylpyridin-3-yl)phenoxy)methyl)morpholino)sulfonyl)-1H-indole-2-carboxamide], with above 1000 nM; and `Cc1cc(-c2cc(OC[C@@H]3CN(S(=O)(=O)c4c(C(N)=O)[nH]c5ccc(Cl)cc45)CCO3)ccc2F)ccn1` [Compound 30, (S)-5-chloro-3-((2-((4-fluoro-3-(2-methylpyridin-4-yl)phenoxy)methyl)morpholino)sulfonyl)-1H-indole-2-carboxamide], with below 100 nM; and `COc1ccc(-c2ccc(OC[C@@H]3CN(S(=O)(=O)c4c(C(N)=O)[nH]c5ccc(Cl)cc45)CCO3)cc2)cc1` [Compound 39, (S)-5-chloro-3-((2-(((4′-methoxy-[1,1′-biphenyl]-4-yl)oxy)methyl)morpholino)sulfonyl)-1H-indole-2-carboxamide], with 206 nM.
As for `NC(=O)c1[nH]c2ccc(Cl)cc2c1S(=O)(=O)N1CCO[C@H](COc2ccc(-c3ccc(F)nc3)cc2)C1` [Compound 46, (S)-5-chloro-3-((2-((4-(6-fluoropyridin-3-yl)phenoxy)methyl)morpholino)sulfonyl)-1H-indole-2-carboxamide], the IC50 turned out to be 12.8 nM.
`COc1cc(-c2ccc(OC[C@@H]3CN(S(=O)(=O)c4c(C(N)=O)[nH]c5ccc(Cl)cc45)CCO3)cc2C)ccn1` [Compound 70, (S)-5-chloro-3-((2-((4-(2-methoxypyridin-4-yl)-3-methylphenoxy)methyl)morpholino)sulfonyl)-1H-indole-2-carboxamide] displayed an IC50 of 75.9 nM.
The value for `NC(=O)c1[nH]c2ccc(Cl)cc2c1S(=O)(=O)N1CCO[C@H](COc2cncc(-c3ccccc3F)c2)C1` [Compound 78] was above 1000 nM.
On to `NC(=O)c1[nH]c2ccc(Cl)cc2c1S(=O)(=O)N1CCO[C@H](COc2ccc(-c3ccccc3)cn2)C1` [Compound 81, (S)-5-chloro-3-((2-(((5-phenylpyridin-2-yl)oxy)methyl)morpholino)sulfonyl)-1H-indole-2-carboxamide], for which the IC50 is above 1000 nM.
The value for `NC(=O)c1[nH]c2ccc(Cl)cc2c1S(=O)(=O)N1CCO[C@H](COc2ccccc2-c2cncnc2)C1` [Compound 60, (S)-5-chloro-3-((2-((2-(pyrimidin-5-yl)phenoxy)methyl)morpholino)sulfonyl)-1H-indole-2-carboxamide] was above 1000 nM.
